The numbers were not newly measured in PMC12030314, “Biomarker-Driven Pharmacokinetics and Efficacy of Polymyxin B in Critically Ill Patients with XDR-GN Pneumonia” (Pharmaceuticals, 2025), which cites them from elsewhere.

Like-named read-outs stand apart in the source and are kept apart here.

The conditions of series [1]: ref Lamer et al. 103, cited from earlier work.
For series [2] the following is noted: significant individual variation; cited from earlier work. From the text:
Colistin (colistin methanesulfonate, CMS) and polymyxin B (PMB) are polymyxins that were approved for clinical use in the 1950s worldwide. Colistin is clinically administered as a prodrug, which requires conversion to the active form in vivo. […] The elimination of colistin is primarily dependent on renal function. Patients with renal impairment are prone to drug accumulation and increased nephrotoxicity risk. PMB is ... || Finally, we cannot rule out the possibility of the potential impacts of other combined drugs on PMB PK and the heterogeneity among the patients in our study. To date, little evidence supports the conclusion that the combined use of other drugs affects PMB PK. Studies have shown that urinary recovery from PMB is low (<5%). […] Further studies examining the nonrenal routes of PMB elimination are warranted, ...

For the compound `CN[C@H](CC(C)C)C(=O)N[C@H]1C(=O)N[C@@H](CC(N)=O)C(=O)N[C@H]2C(=O)N[C@H]3C(=O)N[C@H](C(=O)N[C@H](C(=O)O)c4cc(O)cc(O)c4-c4cc3ccc4O)[C@H](O)c3ccc(c(Cl)c3)Oc3cc2cc(c3O[C@@H]2O[C@H](CO)[C@@H](O)[C@H](O)[C@H]2O[C@H]2C[C@](C)(N)[C@H](O)[C@H](C)O2)Oc2ccc(cc2Cl)[C@H]1O` [vancomycin], the ELF/plasma value in series [1] (patients with lung inflammation (ELF albumin ≥ 3.4 mg/mL)) is 0.246 [0.192–0.426]; in series [1] (patients without lung inflammation (ELF albumin <3.4 mg/mL)) it was 0.14 [0.023–0.285].

With colistin methanesulfonate, the “conversion efficiency of the prodrug to the active form in vivo” value in series [2] is 20–25%.
